# Reference: patent US20240208986A1, “PHENYL AZEPINES AS RIPK1 INHIBITORS AND METHODS OF USE THEREOF” (Merck Sharp & Dohme LLC, priority 2021, published 2024)
# Biological target: RIPK1 (recombinant GST-RIPK1 kinase domain, residues 1-327) (Homo sapiens (Human), UniProt Q13546)
# Assay: RIPK1-ADP-Glo Enzymatic Assay
# Type: biochemical
# Conditions: 25 nM GST-RIPK1, 300 μM ATP, 3 μM dephosphorylated-MBP; 30 minutes pre-incubation, 150 minutes reaction; ten-point titration
# In short: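 GST-tagged RIPK1 (25 nM) was preincubated 30 min with compound at ambient temperature in HEPES pH 7.3 buffer, then run 150 min with 300 μM ATP and 3 μM dephosphorylated MBP. ADP was read by ADP-Glo luminescence. EC50 came from 10-point, 1:3 titrations (top 100000 nM, 1% DMSO) fitted to a four-parameter model.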
# RIPK1 (recombinant GST-RIPK1 kinase domain, residues 1-327), sequence (Q13546 1-327): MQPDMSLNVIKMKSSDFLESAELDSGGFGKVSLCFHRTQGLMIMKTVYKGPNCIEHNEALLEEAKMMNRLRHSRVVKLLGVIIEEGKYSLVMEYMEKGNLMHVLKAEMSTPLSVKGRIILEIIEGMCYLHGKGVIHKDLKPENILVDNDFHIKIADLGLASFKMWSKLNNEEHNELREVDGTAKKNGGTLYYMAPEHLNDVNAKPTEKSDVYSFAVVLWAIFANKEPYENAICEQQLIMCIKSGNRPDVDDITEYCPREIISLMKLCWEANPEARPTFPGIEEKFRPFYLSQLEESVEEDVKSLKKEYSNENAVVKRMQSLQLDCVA
row,IC50 [nM],SMILES
1,2240,"CC(C)(C)C(=O)N1C[C@H]2Cc3ccccc3[C@@H]1C2 [Compound 3-2, 2,2-dimethyl-1-((1S,4S)-1,3,4,5-tetrahydro-2H-1,4-methanobenzo[c]azepin-2-yl)propan-1-one]"
2,1490,"CC(C)(CC#N)C(=O)N1C[C@H]2Cc3ccccc3[C@@H]1C2 [Compound 3-3, 3,3-dimethyl-4-oxo-4-((1S,4S)-1,3,4,5-tetrahydro-2H-1,4-methanobenzo[c]azepin-2-yl)butanenitrile]"
3,17800,"CC(C)(C)C(=O)N1C[C@]2(C)C[C@H]1c1ccccc1O2 [Compound 3-5, 2,2-dimethyl-1-((2S,5S)-2-methyl-2,3-dihydro-2,5-methanobenzo[f][1,4]oxaze-pin-4(5H)-yl)propan-1-one]"
4,14700,"CC(C)(C(=O)N1C[C@]2(C)C[C@H]1c1ccccc1O2)C(F)F [Compound 3-6, 3,3-difluoro-2,2-dimethyl-1-((2S,5S)-2-methyl-2,3-dihydro-2,5-methanobenzo[f][1,4]oxaze-pin-4(5H)-yl)propan-1-one]"

# The remaining lines, values behind:
row,SMILES,IC50 [nM]
1,"O=C(N1C[C@@H]2C[C@H]1c1ccc(Cl)cc1O2)C12CCC(F)(CC1)C2 [Compound 2-33, ((2S,5S)-8-chloro-2,3-dihydro-2,5-methanobenzo[f][1,4]oxaze-pin-4(5H)-yl)(4-fluorobicyclo[2.2.1]heptan-1-yl)methanone]",26
2,"N#Cc1ccnc(N2CCC(F)(C(=O)N3C[C@@H]4C[C@H]3c3cc(F)cc(F)c3O4)CC2)n1 [Compound 2-34, 2-(4-((2S,5S)-7,9-difluoro-2,3,4,5-tetrahydro-2,5-methanobenzo[f][1,4]oxaze-pine-4-carbonyl)-4-fluoropiperidin-1-yl)pyrimidine-4-carbonitrile]",27
3,"O=C(N1C[C@@H]2C[C@H]1c1cc(F)cc(F)c1O2)C12CCC(F)(CC1)C2 [Compound 2-35, ((2S,5S)-7,9-difluoro-2,3-dihydro-2,5-methanobenzo[f][1,4]oxaze-pin-4(5H)-yl)(4-fluorobicyclo[2.2.1]heptan-1-yl)methanone]",12
4,"N#CC12CCC(C(=O)N3C[C@@H]4C[C@H]3c3cc(F)cc(F)c3O4)(C1)C2 [Compound 2-36, 4-((2S,5S)-7,9-difluoro-2,3,4,5-tetrahydro-2,5-methanobenzo[f][1,4]oxaze-pine-4-carbonyl)bicyclo[2.1.1] hexane-1-carbonitrile]",19
